Earlier results as cited in patent US10010615B2 (KemPharm, Inc., priority 2009, dated 2018).

What was measured:
leptin = conditions: chronic oral administration for 6 weeks
human NET = human NET (Homo sapiens, UniProt P23975); conditions: relative to quetiapine
human NET, sequence (P23975 whole entry): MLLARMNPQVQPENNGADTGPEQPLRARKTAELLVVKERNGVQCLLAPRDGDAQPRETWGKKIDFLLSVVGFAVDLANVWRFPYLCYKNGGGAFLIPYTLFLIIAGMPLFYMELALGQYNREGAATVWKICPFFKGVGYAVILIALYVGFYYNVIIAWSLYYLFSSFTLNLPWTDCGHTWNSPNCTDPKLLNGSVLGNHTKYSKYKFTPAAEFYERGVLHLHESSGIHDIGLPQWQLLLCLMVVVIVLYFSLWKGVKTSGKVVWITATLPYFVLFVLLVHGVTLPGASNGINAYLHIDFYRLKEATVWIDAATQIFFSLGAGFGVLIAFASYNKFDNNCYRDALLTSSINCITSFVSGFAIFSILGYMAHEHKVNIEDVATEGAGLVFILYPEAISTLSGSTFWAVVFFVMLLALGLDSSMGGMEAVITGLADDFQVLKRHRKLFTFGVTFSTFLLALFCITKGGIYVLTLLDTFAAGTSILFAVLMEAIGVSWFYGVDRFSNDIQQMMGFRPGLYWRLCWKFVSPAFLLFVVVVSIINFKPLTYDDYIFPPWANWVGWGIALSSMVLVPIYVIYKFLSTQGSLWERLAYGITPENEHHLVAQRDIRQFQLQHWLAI

| Structure (SMILES) | increase in leptin release (leptin) | higher avidity for inhibiting human NET than quetiapine (human NET) |
| --- | --- | --- |
| OCCOCCN1CCN(C2=Nc3ccccc3Sc3ccccc32)CC1 [quetiapine, 2-(2-(4-(dibenzo[b,f][1,4]thiazepin-11-yl)piperazin-1-yl)ethoxy)ethanol] | about 37% | – |
| c1ccc2c(c1)N=C(N1CCNCC1)c1ccccc1S2 [N-desalkyl-quetiapine, 4-(dibenzo[b,f][1,4]thiazepin-11-yl)piperazine] | – | about 100 fold |
